According to paper PMC3996151, “Safety and pharmacological characterization of the molecular tweezer CLR01 – a broad-spectrum inhibitor of amyloid proteins’ toxicity” (BMC Pharmacology & Toxicology, 2014):
Like-named read-outs stand apart in the source and are kept apart here.

What was measured:
[1] = set-up: method as in PMID 23183235; conditions: human plasma; cited from earlier work
porcine brain tubulin = target: T1, porcine brain tubulin (Sus scrofa, UniProt P02550+P02554); experiment: Inhibition of tubulin polymerization (turbidity, absorbance at 340 nm); assay type: biochemical
T1 construct: porcine brain tubulin; purchased Cytoskeleton, Inc., Denver, Colorado; host or cells: porcine brain (tissue-purified)
Procedure: The effect of CLR01 on tubulin polymerization was analyzed using a commercial kit (Cytoskeleton, Inc., Denver, Colorado). Three mg/ml porcine brain tubulin (~18 μM) were allowed to polymerize at 37 °C in the absence or presence of CLR01 concentrations ranging from 10–1,000 μM. The turbidity of the solution was measured as absorbance at λ = 340 nm using a Synergy HT microplate reader (BioTek, Winooski, VT). The data are an average of three independent experiments with two wells per condition.
As stated above, the mechanism by which CLR01 remodels the assembly of amyloidogenic proteins into non-toxic assemblies that can be degraded by normal clearance mechanisms is by its specific binding to Lys residues. The mechanism is “process-specific” because it is postulated to affect only the aberrant assembly of proteins that leads to toxic oligomers and aggregates, but not normal protein structure, function, or assembly as happens, e.g., in tubulin polymerization. To test whether this indeed is the case, we examined the effect of CLR01 on tubulin polymerization. Three mg/ml (~18 μM) porcine brain tubulin, which contains 3.8% Lys and 4.8% Arg, was allowed to polymerize in the absence or presence of CLR01 concentrations ranging from 10–1,000 μM.

[2] = In vitro dephosphorylation by brain homogenate (inorganic phosphate release); assay type: in vitro ADME, mouse; conditions: 50 nmol CLR01, 1.5 mg mouse-brain homogenate, 60 min at 60°C
Procedure: Potential dephosphorylation of CLR01 was analyzed by incubating 100 nmol CLR01 with 0.08 units of alkaline phosphatase (ALP; calf intestinal alkaline phosphatase, Promega, Madison, Wisconsin) for 60 min at 60°C. One enzymatic unit is defined as the amount of enzyme required for catalyzing the hydrolysis of 1 μmol of p-nitrophenylphosphate per minute. p-Nitrophenylphosphate disodium salt at 5–50 nmol (Fisher, Waltham, Massachusetts) was used for generation of a standard curve. The amount of inorganic phosphate generated was measured spectrophotometrically using an EnzChek Phosphate Assay kit (Life Technologies, Carlsbad, California) according to the manufacturer’s instructions on a DU-640 spectrophotometer (Beckman Coulter, Brea, California) at λ = 360 nm. Baseline values were subtracted from readings and compared to the standard curve resulting from serial ALP reactions to calculate the amount of inorganic phosphate. Similarly, potential dephosphorylation of CLR01 by brain homogenates was measured. For these experiments, one brain hemisphere was homogenized by sonication in the presence of cOmplete protease-inhibitor cocktail (Roche, Penzberg, Germany). Protein concentration was measured using a BCA Protein Assay Kit (Pierce, Rockford, Illinois). […]

3×Tg mouse model of AD = system: 3×Tg mouse model of AD; set-up: method as in PMID 23183235; conditions: cited from earlier work
cytochrome P450 system = system: cytochrome P450 system; set-up: method as in PMID 23183235; conditions: up to 10-μM, compared to rifampicin positive control; cited from earlier work
[3] = set-up: method as in Lopes et al., submitted; conditions: SC pumps; ref Lopes et al., submitted; cited from earlier work
[4] = system: nerve growth factor-differentiated rat pheochromocytoma cells; set-up: method as in PMID 21916458, PMID 22860214; conditions: cited from earlier work
[5] = set-up: method as in PMID 23183235; conditions: human liver microsomes; cited from earlier work
[6] = set-up: method as in PMID 23183235; conditions: mouse plasma; cited from earlier work

T1 sequence (P02550 whole entry): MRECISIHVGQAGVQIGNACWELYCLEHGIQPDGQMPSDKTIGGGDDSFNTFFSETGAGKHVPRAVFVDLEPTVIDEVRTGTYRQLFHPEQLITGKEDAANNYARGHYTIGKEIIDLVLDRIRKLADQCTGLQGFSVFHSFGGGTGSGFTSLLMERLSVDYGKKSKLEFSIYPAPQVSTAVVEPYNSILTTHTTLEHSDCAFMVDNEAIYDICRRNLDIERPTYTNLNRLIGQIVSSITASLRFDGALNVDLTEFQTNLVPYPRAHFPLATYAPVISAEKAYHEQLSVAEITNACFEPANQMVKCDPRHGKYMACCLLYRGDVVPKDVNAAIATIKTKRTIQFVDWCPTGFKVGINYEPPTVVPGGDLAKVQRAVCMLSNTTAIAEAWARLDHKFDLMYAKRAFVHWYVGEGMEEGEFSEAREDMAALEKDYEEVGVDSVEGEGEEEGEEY
T1 sequence (P02554 whole entry): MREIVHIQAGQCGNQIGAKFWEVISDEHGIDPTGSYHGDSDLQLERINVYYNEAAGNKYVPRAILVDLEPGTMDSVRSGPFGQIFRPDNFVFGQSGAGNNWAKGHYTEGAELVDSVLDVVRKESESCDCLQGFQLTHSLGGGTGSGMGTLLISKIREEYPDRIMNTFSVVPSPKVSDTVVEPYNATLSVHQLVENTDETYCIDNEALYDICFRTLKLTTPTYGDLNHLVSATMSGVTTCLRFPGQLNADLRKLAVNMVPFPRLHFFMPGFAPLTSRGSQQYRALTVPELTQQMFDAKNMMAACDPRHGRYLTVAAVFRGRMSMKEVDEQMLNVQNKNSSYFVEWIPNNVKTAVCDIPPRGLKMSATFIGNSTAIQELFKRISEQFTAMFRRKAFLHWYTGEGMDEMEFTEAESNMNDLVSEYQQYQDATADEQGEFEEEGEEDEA

Structure (SMILES): O=P(O)(O)Oc1c2c(c(OP(=O)(O)O)c3c1C1CC3c3cc4c(cc31)C1CC4c3ccccc31)C1CC2c2cc3c(cc21)C1CC3c2ccccc21 [CLR01]
- Stability [1]: 100%
- Concentration ratio for disruption of tubulin polymerization relative to ratios needed for inhibition of aggregation of amyloidogenic proteins (porcine brain tubulin): 20–50 times higher
- Absorbance observed immediately (λ = 340 nm) (porcine brain tubulin; 1,000 μM CLR01, 0.05-0.09 without or with up to 300 μM): 0.15 absorbance units
- Concentrations that did not significantly affect the polymerization of tubulin (porcine brain tubulin; 3 mg/ml (~18 μM) tubulin, 37 °C): up to 300 μM
- Concentration at which significant modulation of tubulin polymerization was observed (porcine brain tubulin; 3 mg/ml (~18 μM) tubulin, 37 °C, CLR01 tested at 10–1,000 μM): 1,000 μM
- Inorganic phosphate released on incubation with brain homogenate [2]: no release of inorganic phosphate was detected
- Effect on AD-like brain pathology (3×Tg mouse model of AD; SC, 40 μg/kg/day): significant decrease in amyloid plaque burden and hyperphosphorylated tau
- Effect on APP processing (3×Tg mouse model of AD; treated AD mice): did not affect processing of amyloid β-protein precursor (APP)
- Activation of the cytochrome P450 system (cytochrome P450 system): Minimal activation
- Administered CLR01 in the blood at steady-state [3]: 0.7%
- Concentration at which a mild decrease in cell viability was observed [4]: 400 µM
- Concentration up to which no toxicity was detected [4]: up to 200 μM
- Stability [5]: 100%
- Stability [6]: 100%
